We go through three compounds from article PMC3776780, “Dual p38/JNK Mitogen Activated Protein Kinase Inhibitors Prevent Ozone-Induced Airway Hyperreactivity in Guinea Pigs” (PLoS ONE, 2013).

pKi: −log10 of the molar value. Read-outs that look alike come from different tables or passages of the source.

What all share (assay): spectrophotometric coupled-enzyme kinase inhibition assay
Format in all cases: biochemical

The target of assay [1] is GSK3β (Homo sapiens, UniProt P49841). Here is the method:
(§1) Affinity was measured using a kinase inhibition assay. Compounds were assayed for the inhibition of various kinases using a modification of a spectrophotometric coupled-enzyme assay. In this assay, a fixed concentration of activated kinase (10–40 nM) was incubated with various concentrations of a potential inhibitor dissolved in DMSO for 10 minutes at 30°C in a buffer containing 0.1 M HEPES, pH 7.5, containing 10 mM MgCl2, 2.5 mM phosphoenolpyruvate, 200 µM NADH, 2 mM DTT, 30 µg/mL pyruvate kinase, 10 µg/mL lactate dehydrogenase, and 200 µM–500 µM EGF receptor peptide. The EGF receptor peptide has the sequence […]. The reaction was initiated by the addition of ATP equal to the ATP Km of the kinase, and the assay plate is inserted into the spectrophotometer’s assay plate compartment that was maintained at 30°C. The decrease of absorbance at 340 nm was monitored as a function of time for 10 minutes. The rate data as a function of inhibitor concentration was either fit as an IC50 or to a competitive inhibition kinetic model to determine the compound Ki (see table 1).

Assay [2] has as its target SRC (Homo sapiens, UniProt P12931). As to conditions: read-out: Ki or IC50 SRC. Here is the method:
as §1

Assay [3] addresses T1, ZAP70 (Homo sapiens, UniProt P43403).
T1 sequence (P43403 1-619): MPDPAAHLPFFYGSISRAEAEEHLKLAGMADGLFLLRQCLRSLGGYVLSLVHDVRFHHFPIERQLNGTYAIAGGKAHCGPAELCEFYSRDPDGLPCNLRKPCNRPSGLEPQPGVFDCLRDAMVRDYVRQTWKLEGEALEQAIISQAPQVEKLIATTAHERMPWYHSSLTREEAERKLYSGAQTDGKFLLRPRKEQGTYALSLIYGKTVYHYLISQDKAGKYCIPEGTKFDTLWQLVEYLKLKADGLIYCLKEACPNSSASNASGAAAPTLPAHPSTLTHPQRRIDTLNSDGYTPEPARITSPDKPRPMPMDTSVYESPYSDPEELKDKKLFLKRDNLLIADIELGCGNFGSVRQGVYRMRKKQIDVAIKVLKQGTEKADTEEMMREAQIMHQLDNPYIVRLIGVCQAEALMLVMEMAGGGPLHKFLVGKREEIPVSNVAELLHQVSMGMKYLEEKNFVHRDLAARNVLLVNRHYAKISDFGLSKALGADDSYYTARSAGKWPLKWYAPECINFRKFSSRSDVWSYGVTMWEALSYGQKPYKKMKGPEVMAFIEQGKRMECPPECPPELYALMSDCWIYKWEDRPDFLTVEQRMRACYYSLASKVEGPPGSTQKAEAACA
As to conditions: read-out: Ki or IC50 ZAP70. On the procedure:
as §1

Assay [4] concerns the target ROCK1 (Homo sapiens, UniProt Q13464). As to conditions: read-out: Ki or IC50 ROCK1. On the procedure: as §1
Assay [5] deals with T2, MKK7 (Homo sapiens, UniProt O14733).
T2 sequence (O14733 1-419): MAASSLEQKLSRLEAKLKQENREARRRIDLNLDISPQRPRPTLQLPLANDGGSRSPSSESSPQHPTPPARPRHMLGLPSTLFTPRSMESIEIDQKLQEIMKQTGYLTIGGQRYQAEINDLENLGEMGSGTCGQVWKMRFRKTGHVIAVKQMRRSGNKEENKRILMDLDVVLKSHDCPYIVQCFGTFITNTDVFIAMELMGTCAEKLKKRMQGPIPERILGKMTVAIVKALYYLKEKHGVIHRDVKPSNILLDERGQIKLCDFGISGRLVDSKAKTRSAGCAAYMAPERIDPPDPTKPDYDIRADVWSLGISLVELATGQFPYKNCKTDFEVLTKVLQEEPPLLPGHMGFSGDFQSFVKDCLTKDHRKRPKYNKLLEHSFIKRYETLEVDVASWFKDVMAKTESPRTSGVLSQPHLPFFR
As to conditions: read-out: Ki or IC50 MKK7. On the procedure: as §1

For assay [6], the target named is KDR (Homo sapiens, UniProt P35968). As to conditions: read-out: Ki or IC50 KDR. On the procedure:
as §1

Assay [7] has as its target AKT3 (Homo sapiens, UniProt Q9Y243). As to conditions: read-out: Ki or IC50 AKT3. On the procedure: as §1
Assay [8] concerns the target PLK1 (Homo sapiens, UniProt P53350). As to conditions: read-out: Ki or IC50 PLK1. Here is the method:
as §1

For assay [9], the target named is T3, MKK4 (Homo sapiens, UniProt P45985).
T3 sequence (P45985 1-399): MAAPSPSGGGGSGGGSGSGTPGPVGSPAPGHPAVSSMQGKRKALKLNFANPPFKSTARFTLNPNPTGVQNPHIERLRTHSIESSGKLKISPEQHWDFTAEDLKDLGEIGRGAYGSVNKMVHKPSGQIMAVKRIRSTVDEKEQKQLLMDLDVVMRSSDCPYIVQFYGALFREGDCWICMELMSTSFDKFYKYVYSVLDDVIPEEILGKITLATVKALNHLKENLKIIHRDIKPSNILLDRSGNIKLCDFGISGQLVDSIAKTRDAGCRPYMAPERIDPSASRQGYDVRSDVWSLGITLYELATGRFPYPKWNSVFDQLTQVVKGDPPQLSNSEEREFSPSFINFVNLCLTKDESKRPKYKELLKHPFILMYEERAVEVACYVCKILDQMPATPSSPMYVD
As to conditions: read-out: Ki or IC50 MKK4. Here is the method:
as §1

Assay [10] deals with T4, AurA (Homo sapiens, UniProt O14965).
T4 sequence (O14965 1-403): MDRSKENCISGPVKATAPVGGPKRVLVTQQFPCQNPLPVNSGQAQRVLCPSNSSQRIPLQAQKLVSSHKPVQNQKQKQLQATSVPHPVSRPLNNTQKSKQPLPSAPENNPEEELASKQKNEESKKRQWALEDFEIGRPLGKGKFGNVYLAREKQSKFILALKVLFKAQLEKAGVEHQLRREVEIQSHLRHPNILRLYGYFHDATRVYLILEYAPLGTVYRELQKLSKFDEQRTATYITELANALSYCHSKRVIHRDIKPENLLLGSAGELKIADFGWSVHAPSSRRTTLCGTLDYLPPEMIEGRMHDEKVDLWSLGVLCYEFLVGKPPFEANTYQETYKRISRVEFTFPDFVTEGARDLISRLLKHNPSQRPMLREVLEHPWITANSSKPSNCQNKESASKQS
As to conditions: read-out: Ki or IC50 AurA. On the procedure: as §1

In assay [11] the target is IRAK. As to conditions: read-out: Ki or IC50 IRAK. Here is the method:
as §1

Sequence of GSK3β (P49841 whole entry, species assumed): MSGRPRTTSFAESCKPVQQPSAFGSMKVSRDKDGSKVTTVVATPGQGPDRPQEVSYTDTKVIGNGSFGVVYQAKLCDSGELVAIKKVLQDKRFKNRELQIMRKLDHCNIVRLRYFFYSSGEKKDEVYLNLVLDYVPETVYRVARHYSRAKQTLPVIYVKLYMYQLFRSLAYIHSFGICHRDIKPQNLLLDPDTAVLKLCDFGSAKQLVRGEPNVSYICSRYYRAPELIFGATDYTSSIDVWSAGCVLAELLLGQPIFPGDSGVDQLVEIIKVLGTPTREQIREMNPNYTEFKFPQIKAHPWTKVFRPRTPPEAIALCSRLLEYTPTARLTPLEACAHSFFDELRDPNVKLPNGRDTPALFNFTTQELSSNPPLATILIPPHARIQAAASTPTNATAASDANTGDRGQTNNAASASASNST
Sequence of AKT3 (Q9Y243 whole entry, species assumed): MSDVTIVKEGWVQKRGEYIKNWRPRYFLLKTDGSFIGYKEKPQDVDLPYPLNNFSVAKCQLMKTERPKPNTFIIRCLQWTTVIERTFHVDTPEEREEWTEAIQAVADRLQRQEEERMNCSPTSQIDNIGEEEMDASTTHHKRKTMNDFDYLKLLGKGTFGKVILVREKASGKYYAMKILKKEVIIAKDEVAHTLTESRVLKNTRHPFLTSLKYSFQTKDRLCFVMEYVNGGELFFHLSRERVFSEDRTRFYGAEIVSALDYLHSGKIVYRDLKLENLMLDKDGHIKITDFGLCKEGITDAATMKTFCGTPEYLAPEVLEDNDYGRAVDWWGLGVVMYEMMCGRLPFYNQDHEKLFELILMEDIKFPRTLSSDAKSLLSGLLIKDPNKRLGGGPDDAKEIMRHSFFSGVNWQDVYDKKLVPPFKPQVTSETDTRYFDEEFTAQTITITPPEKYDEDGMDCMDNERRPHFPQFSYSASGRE
Sequence of KDR (P35968 20-1356, species assumed): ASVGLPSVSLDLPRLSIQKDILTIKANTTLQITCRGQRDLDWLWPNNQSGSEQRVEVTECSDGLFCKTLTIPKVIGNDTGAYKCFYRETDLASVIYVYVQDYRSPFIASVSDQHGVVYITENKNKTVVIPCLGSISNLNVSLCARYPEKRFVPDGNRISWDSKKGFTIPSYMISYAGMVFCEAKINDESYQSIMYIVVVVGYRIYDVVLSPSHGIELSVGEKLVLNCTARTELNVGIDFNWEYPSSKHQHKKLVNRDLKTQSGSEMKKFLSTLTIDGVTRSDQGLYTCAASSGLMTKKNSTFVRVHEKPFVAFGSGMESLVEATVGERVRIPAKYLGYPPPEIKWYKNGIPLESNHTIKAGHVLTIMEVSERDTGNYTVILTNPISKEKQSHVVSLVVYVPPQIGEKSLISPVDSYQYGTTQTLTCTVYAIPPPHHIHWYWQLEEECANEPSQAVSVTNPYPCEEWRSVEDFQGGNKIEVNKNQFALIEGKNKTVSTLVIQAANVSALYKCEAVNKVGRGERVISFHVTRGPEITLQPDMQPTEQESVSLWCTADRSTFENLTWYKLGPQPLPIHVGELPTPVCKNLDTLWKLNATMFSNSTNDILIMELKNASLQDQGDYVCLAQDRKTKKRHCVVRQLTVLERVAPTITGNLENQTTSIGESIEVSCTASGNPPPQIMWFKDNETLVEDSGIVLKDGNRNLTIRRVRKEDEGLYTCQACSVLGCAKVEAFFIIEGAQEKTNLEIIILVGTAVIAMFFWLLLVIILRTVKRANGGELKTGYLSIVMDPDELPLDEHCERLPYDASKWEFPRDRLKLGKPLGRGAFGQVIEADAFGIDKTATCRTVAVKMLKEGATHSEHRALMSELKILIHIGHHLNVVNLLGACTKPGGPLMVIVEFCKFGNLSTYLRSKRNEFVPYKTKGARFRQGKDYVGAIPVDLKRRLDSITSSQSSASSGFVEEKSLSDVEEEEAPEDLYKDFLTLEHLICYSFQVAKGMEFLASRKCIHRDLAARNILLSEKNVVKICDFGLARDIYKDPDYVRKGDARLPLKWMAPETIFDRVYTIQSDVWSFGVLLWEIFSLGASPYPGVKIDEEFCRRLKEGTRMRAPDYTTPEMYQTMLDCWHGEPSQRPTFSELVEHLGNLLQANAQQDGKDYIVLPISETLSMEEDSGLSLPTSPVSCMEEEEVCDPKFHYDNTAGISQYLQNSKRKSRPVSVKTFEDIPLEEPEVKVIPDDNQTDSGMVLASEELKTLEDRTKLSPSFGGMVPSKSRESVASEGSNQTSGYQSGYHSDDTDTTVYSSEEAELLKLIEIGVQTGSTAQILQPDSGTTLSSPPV
Sequence of PLK1 (P53350 whole entry, species assumed): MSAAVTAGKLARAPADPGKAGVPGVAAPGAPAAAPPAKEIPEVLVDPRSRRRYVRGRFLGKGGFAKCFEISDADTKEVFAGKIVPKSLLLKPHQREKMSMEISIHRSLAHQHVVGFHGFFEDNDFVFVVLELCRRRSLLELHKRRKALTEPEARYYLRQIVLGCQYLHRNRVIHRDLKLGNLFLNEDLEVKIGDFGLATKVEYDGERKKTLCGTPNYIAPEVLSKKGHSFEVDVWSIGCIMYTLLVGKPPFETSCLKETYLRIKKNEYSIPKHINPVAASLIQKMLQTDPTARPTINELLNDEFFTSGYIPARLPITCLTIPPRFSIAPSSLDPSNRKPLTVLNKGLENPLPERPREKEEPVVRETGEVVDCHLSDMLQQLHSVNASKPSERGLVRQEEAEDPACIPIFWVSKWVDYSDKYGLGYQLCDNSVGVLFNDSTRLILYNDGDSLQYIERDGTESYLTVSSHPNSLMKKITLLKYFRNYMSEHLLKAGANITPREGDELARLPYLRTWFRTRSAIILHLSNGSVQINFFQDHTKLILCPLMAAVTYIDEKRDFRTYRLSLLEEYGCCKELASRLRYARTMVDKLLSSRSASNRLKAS
Sequence of ROCK1 (Q13464 whole entry, species assumed): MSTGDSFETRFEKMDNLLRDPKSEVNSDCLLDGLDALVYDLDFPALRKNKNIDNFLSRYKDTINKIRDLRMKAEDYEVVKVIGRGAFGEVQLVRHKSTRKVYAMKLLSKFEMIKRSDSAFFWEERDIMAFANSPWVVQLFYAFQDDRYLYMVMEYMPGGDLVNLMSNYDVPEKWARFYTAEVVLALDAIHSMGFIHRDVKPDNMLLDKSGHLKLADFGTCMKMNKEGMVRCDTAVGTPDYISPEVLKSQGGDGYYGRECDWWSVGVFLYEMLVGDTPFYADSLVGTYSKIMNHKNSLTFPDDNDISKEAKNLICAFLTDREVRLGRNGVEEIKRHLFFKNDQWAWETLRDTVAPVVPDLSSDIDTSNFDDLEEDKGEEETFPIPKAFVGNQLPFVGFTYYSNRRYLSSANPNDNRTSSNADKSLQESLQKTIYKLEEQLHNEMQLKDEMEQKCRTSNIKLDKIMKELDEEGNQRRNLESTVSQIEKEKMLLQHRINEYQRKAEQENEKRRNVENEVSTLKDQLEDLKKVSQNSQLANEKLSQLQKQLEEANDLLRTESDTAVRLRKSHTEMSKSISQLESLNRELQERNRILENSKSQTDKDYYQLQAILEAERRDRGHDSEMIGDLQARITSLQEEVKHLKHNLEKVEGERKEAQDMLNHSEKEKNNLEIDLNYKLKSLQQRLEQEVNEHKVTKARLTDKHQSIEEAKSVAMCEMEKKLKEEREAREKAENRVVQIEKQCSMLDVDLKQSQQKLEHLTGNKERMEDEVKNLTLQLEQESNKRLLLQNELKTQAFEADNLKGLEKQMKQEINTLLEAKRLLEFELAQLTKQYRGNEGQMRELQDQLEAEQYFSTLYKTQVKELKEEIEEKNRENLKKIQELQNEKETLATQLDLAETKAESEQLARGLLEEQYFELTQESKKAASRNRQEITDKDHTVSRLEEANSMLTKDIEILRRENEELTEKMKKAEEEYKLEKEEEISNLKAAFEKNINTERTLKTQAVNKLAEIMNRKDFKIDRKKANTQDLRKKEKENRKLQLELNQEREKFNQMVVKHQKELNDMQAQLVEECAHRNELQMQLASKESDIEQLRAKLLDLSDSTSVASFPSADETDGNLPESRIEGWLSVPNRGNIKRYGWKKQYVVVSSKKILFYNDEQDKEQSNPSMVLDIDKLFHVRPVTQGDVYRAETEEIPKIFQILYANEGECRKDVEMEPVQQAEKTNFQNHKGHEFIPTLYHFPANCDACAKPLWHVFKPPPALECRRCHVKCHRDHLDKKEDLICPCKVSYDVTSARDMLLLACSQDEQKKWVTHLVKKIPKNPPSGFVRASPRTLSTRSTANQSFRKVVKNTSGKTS
Sequence of SRC (P12931 whole entry, species assumed): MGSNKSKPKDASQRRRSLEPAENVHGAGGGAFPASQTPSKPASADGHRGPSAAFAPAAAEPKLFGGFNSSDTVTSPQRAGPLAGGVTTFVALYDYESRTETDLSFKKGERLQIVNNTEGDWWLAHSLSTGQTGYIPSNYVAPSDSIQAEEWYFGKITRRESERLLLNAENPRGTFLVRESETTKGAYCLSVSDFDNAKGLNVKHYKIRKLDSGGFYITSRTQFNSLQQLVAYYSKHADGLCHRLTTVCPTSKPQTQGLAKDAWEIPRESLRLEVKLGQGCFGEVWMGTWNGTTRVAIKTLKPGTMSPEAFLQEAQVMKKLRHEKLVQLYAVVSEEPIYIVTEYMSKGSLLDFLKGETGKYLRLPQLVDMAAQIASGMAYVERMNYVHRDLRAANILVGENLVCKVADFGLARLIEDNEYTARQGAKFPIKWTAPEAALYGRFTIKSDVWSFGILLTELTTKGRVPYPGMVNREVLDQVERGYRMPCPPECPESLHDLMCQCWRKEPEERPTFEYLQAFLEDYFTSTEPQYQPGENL

As a reminder, the pKi is the negative decadic logarithm of the Ki, by convention in mol/L. For the compound `OC[C@@H]1CCCN1Cc1onc(-c2ccc(F)cc2)c1-c1ccnc(NC2CCCCC2)n1` [V-05-014], the pKi in assay [1] (read-out: Ki or IC50 GSK3β), in assay [2], in assay [3], in assay [4], in assay [5] and in [6] was less than 6.00 in each case. For the same compound, the pKi in assay [7], in [8], in assay [9], in assay [10] and in assay [11] was less than 6.00 in each case.
Regarding `Fc1ccc(-c2noc(CN3CCCCC3)c2-c2ccnc(NC3CCCCC3)n2)cc1` [V-05-015], the pKi in assay [1] (read-out: Ki or IC50 GSK3β), in [2], in assay [3], in [4], in assay [5] and in assay [6] was less than 6.00 in each case. In addition, the pKi in assay [7], in [8], in [9], in assay [10] and in [11] was less than 6.00 throughout.
As for `OC1CCN(Cc2onc(-c3ccc(F)cc3)c2-c2ccnc(NC3CCCCC3)n2)CC1` [V-05-013], the pKi in assay [1] (read-out: GSK3β Ki) was 6.14; in assay [2], less than 6.00; in assay [3] it was less than 6.00; in assay [4] it was less than 6.00; in assay [5], less than 6.00; in assay [6], less than 6.00. For the same compound, the pKi in [7], in assay [8], in [9], in assay [10] and in assay [11] was less than 6.00 in each case.
